Reference: PMC11126936, “Reactivating Hippo by drug compounds to suppress gastric cancer and enhance chemotherapy sensitivity” (The Journal of Biological Chemistry, 2024)
Like-named read-outs stand apart in the source and are kept apart here.

Columns and labels:
PP2Aa [1] = target: T1, PP2Aa (Homo sapiens, UniProt P30153); assay: MST assay, binding to PP2Aa
T1 construct: GST; made in house; host or cells: E. coli BL21 Codon plus (DE3)

AGS cells xenograft = assay: AGS xenograft tumor model; conditions: intratumoral injection, five consecutive days, vs control
Description: Briefly, healthy male 615 mice were maintained in pathogen-free conditions. Mice were first injected with 2 × 10^6 AGS cells/per mouse into their flanks to induce tumor formation. Once the tumor volume reached about 100 mm^3, mice were injected intratumorally with indicted inhibitors for five successive days. Two weeks later, the mice were euthanized and then their tumors were harvested and weighed.

GES-1 cells = assay: Cell viability of non-cancerous gastric epithelial GES-1 cells; conditions: Homo sapiens, GES1, read-out: IC50 value, GES-1 cells
[2] = system: YAP target gene CTGF in HGC-27 cells; assay: CTGF mRNA (qPCR) in HGC-27 cells; conditions: 48 h
PP2Aa–STRN3 interaction [3] = target: T2, PP2Aa–STRN3 interaction (Homo sapiens, UniProt P30153); assay: Co-IP of HA-PP2Aa and Flag-STRN3 in HEK293A cells; assay type: cell-based; parameters: expressed in transfected cells; host or cells: HEK293A
Target sequence in this assay (P30153 whole entry): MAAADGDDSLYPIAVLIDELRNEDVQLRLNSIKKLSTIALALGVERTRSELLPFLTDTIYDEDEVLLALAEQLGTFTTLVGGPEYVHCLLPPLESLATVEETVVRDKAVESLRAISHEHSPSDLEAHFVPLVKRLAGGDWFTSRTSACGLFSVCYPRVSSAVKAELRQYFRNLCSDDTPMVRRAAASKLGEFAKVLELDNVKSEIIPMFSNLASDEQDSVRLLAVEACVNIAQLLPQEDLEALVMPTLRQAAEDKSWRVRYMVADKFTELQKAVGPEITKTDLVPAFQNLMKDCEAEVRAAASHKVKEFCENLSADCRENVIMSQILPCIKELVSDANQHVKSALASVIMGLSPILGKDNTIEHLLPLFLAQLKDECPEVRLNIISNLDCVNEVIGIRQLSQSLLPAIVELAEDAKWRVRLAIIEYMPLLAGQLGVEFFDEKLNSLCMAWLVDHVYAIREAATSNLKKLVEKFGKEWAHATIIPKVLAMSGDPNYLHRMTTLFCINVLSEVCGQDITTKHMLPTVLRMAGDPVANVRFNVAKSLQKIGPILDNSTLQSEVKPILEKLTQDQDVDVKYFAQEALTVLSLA

PP2Aa–STRN3 interaction [4] = target: T2, PP2Aa–STRN3 interaction; assay: GST pulldown assay, PP2Aa–STRN3; assay type: binding; parameters: GST; SUMO; made in house; host or cells: E. coli BL21 Codon plus (DE3); conditions: recombinant GST-PP2Aa and His-Sumo-STRN3; up to 10 μM compound
Target sequence in this assay (P30153 8-589): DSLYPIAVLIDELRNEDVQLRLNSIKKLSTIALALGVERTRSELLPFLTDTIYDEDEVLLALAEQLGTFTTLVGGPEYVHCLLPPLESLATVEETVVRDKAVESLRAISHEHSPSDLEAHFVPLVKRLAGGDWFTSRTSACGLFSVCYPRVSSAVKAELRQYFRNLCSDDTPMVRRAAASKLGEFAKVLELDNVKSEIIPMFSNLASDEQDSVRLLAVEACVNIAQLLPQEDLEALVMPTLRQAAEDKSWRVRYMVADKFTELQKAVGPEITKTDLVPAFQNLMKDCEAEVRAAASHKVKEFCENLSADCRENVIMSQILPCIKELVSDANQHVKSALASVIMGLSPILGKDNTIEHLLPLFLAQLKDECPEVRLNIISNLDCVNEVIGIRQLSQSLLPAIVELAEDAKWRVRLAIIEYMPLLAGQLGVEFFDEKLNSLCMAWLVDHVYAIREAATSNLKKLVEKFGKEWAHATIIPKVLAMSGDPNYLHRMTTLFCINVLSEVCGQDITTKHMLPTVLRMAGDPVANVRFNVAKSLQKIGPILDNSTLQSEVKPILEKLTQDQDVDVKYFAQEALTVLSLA

HGC-27 cells [5] = assay: Cell viability assay in HGC-27 cells; assay type: cell-based, human; conditions: for IC50: cell viability, read-out: IC50 values in HGC-27 cells
PP2Aa [6] = target: T1, PP2Aa; assay: ITC binding to PP2Aa; conditions: 25 °C
Description: (§1) ITC experiments were conducted using an iTC200 instrument from Microcal at 25 °C. […] Each titration included a single […] injection followed by 19 sequential injections of […] aliquots, with a spacing of 300 s between the injections, and stirring at 1000 rpm. Data were analyzed using the ITC data analysis software (MicroCal Software, https://www.malvernpanalytical.com/en/support/product-support/software/microcal-peaq-itc-analysis-software-v141).

STRN3 = target: T3, STRN3 (Homo sapiens, UniProt Q13033); assay: ITC binding to STRN3
T3 construct: His-SUMO; made in house; host or cells: E. coli BL21 Codon plus (DE3)
T3 sequence (Q13033 64-145): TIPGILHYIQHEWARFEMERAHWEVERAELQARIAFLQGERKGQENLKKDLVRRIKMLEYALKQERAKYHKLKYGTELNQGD
Description: as §1

HGC-27 cells [7] = assay: Colony formation assay in HGC-27 cells; conditions: about 2 weeks
Description: After about 2 weeks incubation, cell colonies were identified by their being stained with 1% crystal violet dye. And colonies with diameters of >1 mm were counted.

mice = conditions: ref [65]; cited from earlier work
zebrafish larvae = conditions: ref [65], [66]; cited from earlier work
YAP phosphorylation = conditions: HEK293A, Flag-YAP
MNNG-induced GC tumors = assay: MNNG-induced GC mouse model; conditions: 50 mg/kg per day DSF vs control mice

T1 sequence (P30153 8-589): as the sequence (P30153 8-589) above

CCN(CC)C(=S)SSC(=S)N(CC)CC [DSF, disulfiram]
Kd (PP2Aa [1]): 4.9 µM
effect on binding of STRN3 to PP2Aa (PP2Aa [1]; compound added): readily disrupted the binding of STRN3 to PP2Aa
tumor weight / tumor growth (AGS cells xenograft): modestly lower tumor weights
IC50 (GES-1 cells): 1.29 µM
mRNA levels of YAP target gene CTGF [2]: significantly reduced
PP2Aa–STRN3 interaction in Co-IP (PP2Aa–STRN3 interaction [3]): dramatically decreased
PP2Aa–STRN3 association in GST pulldown (PP2Aa–STRN3 interaction [4]): dramatically reduced
IC50 (HGC-27 cells [5]; listed as Disulfiram): 0.39 µM
IC50 (HGC-27 cells [5]): < 5 µM
effect of addition of copper ion on suppression of HGC-27 cell viability by the compound (HGC-27 cells [5]; compound-Cu complex vs compound): further dramatically enhanced
Kd (PP2Aa [6]): 4.1 µM
binding to STRN3 (STRN3): can specifically bind to PP2Aa but not STRN3
colony formation of HGC-27 cells (HGC-27 cells [7]): significantly inhibited colony formation
in vivo side effects in mice (mice): reduction of body weight and glucose excretion
adverse effects in zebrafish larvae (zebrafish larvae): adverse effects
level of pYAP^Ser (YAP phosphorylation): dose-dependently increased
level of pYAP^Tyr (YAP phosphorylation): marginal effect
Ctgf expression in tumors (RNA-Scope) (MNNG-induced GC tumors): sharp decrease
area of tumors (MNNG-induced GC tumors): substantially smaller
